In ChEMBL document CHEMBL4138093, “Discovery and characterization of selective human sphingomyelin synthase 2 inhibitors” (Eur J Med Chem, 2017) one finds IC50, Ratio IC50 and Activity data, which are given here for two molecules.

Series [1] deals with T1, Phosphatidylcholine:ceramide cholinephosphotransferase 1 (Homo sapiens, UniProt Q86VZ5).
T1 sequence (Q86VZ5 whole entry): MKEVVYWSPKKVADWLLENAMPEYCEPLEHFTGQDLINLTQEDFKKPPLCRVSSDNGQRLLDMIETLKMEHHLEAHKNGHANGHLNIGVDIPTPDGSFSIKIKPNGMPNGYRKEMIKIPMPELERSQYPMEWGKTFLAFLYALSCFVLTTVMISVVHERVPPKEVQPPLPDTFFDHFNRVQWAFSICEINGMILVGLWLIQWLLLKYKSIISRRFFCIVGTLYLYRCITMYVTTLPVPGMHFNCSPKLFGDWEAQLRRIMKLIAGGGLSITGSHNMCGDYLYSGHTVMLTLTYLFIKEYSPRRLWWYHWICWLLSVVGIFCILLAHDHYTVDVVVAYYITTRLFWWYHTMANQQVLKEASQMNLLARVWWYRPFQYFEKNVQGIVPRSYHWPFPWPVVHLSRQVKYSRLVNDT
The series can be described thus: Inhibition of full length C-terminal FLAG tagged human SMS1 expressed in HEK293 cell membranes using DMPC-d72 and C17-ceramide as substrate preincubated for 60 mins followed by substrate addition measured after 30 mins by RapidFire/mass spectrometry assay.

Series [2] concerns the target T2, Phosphatidylcholine:ceramide cholinephosphotransferase 2 (Homo sapiens, UniProt Q8NHU3).
T2 sequence (Q8NHU3 whole entry): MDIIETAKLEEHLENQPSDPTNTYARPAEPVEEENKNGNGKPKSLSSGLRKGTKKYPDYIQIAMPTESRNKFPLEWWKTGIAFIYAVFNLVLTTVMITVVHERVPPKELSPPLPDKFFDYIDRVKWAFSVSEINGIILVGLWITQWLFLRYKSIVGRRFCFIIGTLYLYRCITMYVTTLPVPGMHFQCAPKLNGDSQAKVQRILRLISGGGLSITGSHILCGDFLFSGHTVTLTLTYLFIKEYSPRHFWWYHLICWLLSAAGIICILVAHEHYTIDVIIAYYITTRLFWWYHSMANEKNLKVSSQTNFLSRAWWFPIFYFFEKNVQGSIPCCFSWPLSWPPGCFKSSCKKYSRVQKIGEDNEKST
The series can be described thus: Inhibition of full length C-terminal FLAG tagged human SMS2 expressed in HEK293 cell membranes using DMPC-d72 and C17-ceramide as substrate preincubated for 60 mins followed by substrate addition measured after 30 mins by RapidFire/mass spectrometry assay.

The species named for the next series is Homo sapiens. The experiment in a line: Selectivity index, ratio of IC50 for full length C-terminal FLAG tagged human SMS1 to IC50 for full length C-terminal FLAG tagged human SMS2.
In a further series the test system is HEK-293T. The series can be described thus: Cytotoxicity against HEK293T cells by CellTiter-Glo luminescent cell viability assay relative to control. It counts as cell-based. Particulars: human. On the technique in general: Cellular ATP, detected with luciferase, serves as a proxy for viable cell number.
Series [3] has as its target T1, Phosphatidylcholine:ceramide cholinephosphotransferase 1. The series can be described thus: Inhibition of human SMS1.

pIC50: −log10 of the molar value. Some results are limits rather than exact numbers.

A word on the pIC50: it is −log10 of the IC50, conventionally taken in molar units.

Turning to `S=C(S)OC1CC2CC1C1CCCC21` (stereo not given), the pIC50 in series [1] was 4.07; in series [2] it was 4.25. Also, in the series listed under Homo sapiens, the Ratio IC50 was 1.5.

In the case of `CN(Cc1cc(C(F)(F)F)cc(C(F)(F)F)c1)C(=O)c1c(N2CCCC2)c2ccccc2n(C)c1=O`, the Activity in the series on HEK-293T was greater than 50%. In series [3], this molecule showed a pIC50 of less than 4.00.
